Test results as given in publication PMC5329948, “Caspase vinyl sulfone small molecule inhibitors prevent axonal degeneration in human neurons and reverse cognitive impairment in Caspase-6-overexpressing mice” (Molecular Neurodegeneration, 2017).

What was measured:
[1] = target: T1, recombinant Caspase-5 (Homo sapiens, UniProt P51878); assay: Caspase Inhibitor Drug Screening Kit (BioVision), WEHD-AFC substrate; assay type: biochemical; conditions: not active site titrated
T1 construct: purchased BioVision
Description: The half-maximal inhibitory concentrations (IC50) for NWL inhibitors (Patent publication # WO/2009/140765, WO/2010/133000, and WO/2012/140500) was determined by incubating 0 to 20 μM NWL-117 and NWL-154 with 20 nM of active site-titrated Casp6 in SB at room temperature for 5 minutes. Then, 10 μM Ac-VEID-AFC was added and fluorescence measured for 20 min at 37 °C as described above. New World Laboratories performed the IC50 determination for NWL inhibitors dissolved in dimethyl sulfoxide (DMSO) against recombinant Casp1-10 using the Caspase Inhibitor Drug Screening Kits (BioVision, San Francisco, CA) following the manufacturer’s instructions and the preferred substrates for the caspases (Caspase-1: WAD-AFC, Caspase-2: VDVAD-AFC, Caspase-3: DEVD-AFC, Caspase-4: LEVD-AFC, Caspase-5: WEHD-AFC, Casp6:VEID-AFC, Caspase-7: DEVD-AFC, Caspase-8: IETD-AFC, Caspase-9: LEHD-AFC, Caspase-10: AEVD-AFC). In transfected HCT116 cells, 0 to 100 μM NWL inhibitors were added in the culture media and left on the cells for 2 h. Cells were washed once with 1 mL ice-cold PBS, incubated on ice for 5 min with 200 μL cell lysis buffer (CLB) (50 mM HEPES, 0.1% CHAPS, 0.1 mM EDTA), and gently scraped off. Protein concentrations were determined by Bradford assay (BioRad, Mississauga, ON, CA) by measuring the absorbance at 595 nm using the BioTek Synergy H4 plate reader. […]

[2] = system: HCT116 cells; assay: Cellular toxicity in HCT116 cells (phase contrast, MTT, LDH, sub-G1); assay type: cell-based, human; conditions: for cell morphology (phase contrast) / lactate dehydrogenase (LDH) release / sub-G1 levels of DNA: HCT116, 100 μM, 24 h; for mitochondrial reductive potential (MTT): HCT116, 20, 50 or 100 μM, 24 or 48 h
Description: Immunofluorescence on human neuron cultures: Primary human neurons were pre-treated 2 h and serum-deprived in the presence of 100 μM NWL-117, 100 μM NWL-154, or 5 μM Z-VEID-fmk (Biomol, Plymouth meeting, PA, USA) for 24 h. Following treatment, human neurons were washed once with warm PBS, fixed for 20 min at room temperature with 4% paraformaldehyde (Sigma, Oakville, ON, CA)/4% sucrose (BioRad, Mississauga, ON, CA) for TubΔCasp6 or 2% formaldehyde (Thermo Fisher Scientific, Waltham, MA, USA)/0.2% glutaraldehyde (Sigma, Oakville, ON, CA) for pBudEGFP or pBudEGFP/APP^WT-transfected neurons, incubated in permeabilization buffer (0.1% Triton X-100, 0.1 sodium citrate) for 1 min on ice, washed with PBS, blocked for 20 min at room temperature with 10% goat serum (Sigma, Oakville, ON, CA), and incubated with primary antibodies diluted in 10% goat serum in PBS overnight at 4 °C in a humid chamber. The glass coverslips were washed with PBS, and incubated with goat anti-rabbit secondary antibody coupled to Alexa 488 (Molecular Probes, Eugene, OR, USA) or Cy3 (GE Healthcare Life Sciences, Baie D’Urfe, QC, CA) and Hoechst 33342 (ImmunoChemistry, Bloomington, MN, USA) at 1 μg/mL for 2 h at room temperature. The coverslips were washed with PBS and rinsed in Milli-Q water before mounting in fluoromount (Dako, Burlington, ON, CA). Images were acquired by fluorescence microscopy and quantified using the ImageJ software (NIH, Bethesda, MD, USA) for TubΔCasp6 and manually counted for transfected EGFP(+)-neurons. Time lapse-imaging by live fluorescence microscopy: Primary human neurons were transfected with gold beads coated with pBudEGFP or pBudEGFP/APP^WT using a Helios Gene gun (BioRad, Mississauga, ON, CA). Briefly, cells were pre-treated with 100 μM NWL inhibitors or 5 μM Z-VEID-fmk for 2 h. The media was removed and the neurons were shot at 100 psi. The media was quickly replaced with the inhibitors present. The plasmid was expressed for 16 h before setting up the fluorescence microscope (Nikon Eclipse Ti) to acquire 20 images per condition every hour for 72 h at 37 °C with 5% CO2. The images were analyzed by counting the total number of neurons (50–100 neurons per condition per independent experiment), and the number of beaded, swollen soma, and healthy neurons. In addition, the time at which cells beaded was noted. Phase contrast microscopy: HCT116 cells, plated at a density of 1×10^5 cells/well and human neurons, plated at a density of 6×10^6 cells/well on poly-L-lysine were treated with PBS, 100 μM NWL-117, 100 μM NWL-154, or 2 μM staurosporine (Biomol, Plymouth meeting, PA, USA) for 24 h. Images were acquired with the Nikon Eclipse Ti microscope and the NIS-Elements (Version 3.10) software.
MTT assay: HCT116 cells or primary human neurons were seeded in 96-well plates at a density of 1x10^4 and 1x10^5 cells per well, respectively. The next day, cells and neurons were treated with vehicle (PBS), or 20, 50, or 100 μM of NWL-117, NWL-154, or 2 μM staurosporine for 24 or 48 h. The media was replaced with […] MTT (3-(4,5-dimethylthiazol-2-yl)-2,5-diphenyltetrazolium bromide) (Sigma-Aldrich, Oakville, ON, CA) and the cells were incubated for 4 h at 37 °C in 5% CO2. The media was removed before dissolving the formazan crystals in 100 μL DMSO while shaking for 30 min. Once dissolved, the absorbance of each sample was measured at 560 nm and 670 nm using the Synergy H4 plate reader from BioTek (Winooski, VT, USA). LDH Assay: HCT116 cells were seeded in a 6-well plate at a density of 1×10^5 cells/well and treated the following day with 100 μM NWL-117 or −154 or equal volumes of vehicle (PBS) for 24 h. As a positive control, some cells were lysed for 2 h in 0.9% Triton X-100 (BioShop Canada Inc, Burlington, Ontario, CA). Media was collected and stored at −20 °C or assayed right away using the Cytotox 96 kit (Promega, Madison, WI, USA) following the manufacturer’s protocol. […]

T1 sequence (P51878 137-434): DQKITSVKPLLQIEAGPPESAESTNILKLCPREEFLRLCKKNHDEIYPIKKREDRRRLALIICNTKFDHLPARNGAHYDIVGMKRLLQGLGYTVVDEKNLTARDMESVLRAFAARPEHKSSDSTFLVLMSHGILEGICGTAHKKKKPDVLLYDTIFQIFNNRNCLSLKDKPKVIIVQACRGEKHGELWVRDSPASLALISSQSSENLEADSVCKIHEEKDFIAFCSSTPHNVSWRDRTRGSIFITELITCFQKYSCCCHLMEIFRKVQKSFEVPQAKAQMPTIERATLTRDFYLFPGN

Compound | IC50 [1] [µM] | cell morphology (phase contrast) [2] | lactate dehydrogenase (LDH) release [2] | sub-G1 levels of DNA [2] | mitochondrial reductive potential (MTT) [2]
CCC(C)[C@H](NC(=O)[C@H](CCC(=O)O)NC(=O)[C@@H](NC(=O)OCc1ccccc1)C(C)C)C(=O)N[C@H](/C=C(\Cl)S(C)(=O)=O)CC(=O)O (stereo partly shown) [NWL-154] | 4.19 | morphologically normal | did not release lactase dehydrogenase | nor did the cells show increased sub-G1 levels | comparable to vehicle-treated cells
CCC(C)[C@H](NC(=O)[C@H](CCC(=O)O)NC(=O)[C@@H](NC(=O)OCc1ccccc1)C(C)C)C(=O)N[C@H](/C=C/S(C)(=O)=O)CC(=O)O (stereo partly shown) [NWL-117] | 19.5 | morphologically normal | did not release lactase dehydrogenase | nor did the cells show increased sub-G1 levels | comparable to vehicle-treated cells
